Source: US6521267B1, “Tyrosinase inhibitors from plants” (Fytokem Prtoducts, Inc., priority 1998, dated 2003)

Test system: tyrosinase (Sigma T-7755)
Assay: tyrosinase assay: conversion of L-DOPA to DOPAquinone, monitored at 475 nm
Type: biochemical
Conditions: for INHIBITION OF ENZYME: comparison standard, 1% solution (solids present 1.0); for Inhibition of tyrosinase enzyme step 2, 0.001% conc: ingredient at 0.001% conc; for Inhibition of tyrosinase enzyme step 2, 0.01% conc: ingredient at 0.01% conc; for Inhibition of tyrosinase enzyme step 2, 0.1% conc: ingredient at 0.1% conc; for Inhibition of tyrosinase enzyme step 2, 1% conc: ingredient at 1% conc
Method: The tyrosinase assay was based on methods previously published (Mason, H. S., (1948) J. Biol. Chem. 172, 83-86; Dawson, C. R. and Magee, R. J. (1955) Methods in Enzymology II 817-827 (Editors-in-chief S. P. Colowick and N. O. Caplan); Lerner, A. B. (1955) ibid 827-831; Bergmeyer, U. H. (1983) Methods of Enzymatic Analysis (Published by Verlag Chemie, Weinheim)). The protocol was as follows, scaled for the approximately twenty sample determinations:
(a) A buffer solution of pH 6.5 was prepared by dissolving 1.4 9 disodium monohydrogen phosphate (Na2HPO4) and 1.4 g monopotassium dihydrogen phosphate (KH2PO4) in pure water to make 200 mL.
(b) An enzyme solution of either 1.0 mg or 3.0 mg tyrosinase (Sigma T-7755) was prepared in 30 mL buffer and stored at 2° C. until use.
(c) A substrate solution was prepared by dissolving 0.10 g L-DOPA (L-3,4-dihydroxyphenyl-alanine, Sigma D-9661) in 100 ML buffer.
(d) The unfettered enzyme reaction rate was measured by mixing together 0.5 mL buffer solution and 0.5 mL substrate solution in twin acrylate mini-cuvettes (path 2.0 mm), and after observing the stability of the mixture, mixing in 0.25 mL enzyme solution to one cuvette. The formation of red DOPAquinone was monitored spectrophotometrically at 475 nm, at times 0, 1, 2 and 3 minutes.
(e) The effect of added substances on the enzyme reaction rate was measured by mixing together 0.5 mL buffer solution, 0.5 mL substrate solution and 0.25 mL test substance (at 1% strength in 50:50 butyleneglycol:water) in twin acrylate mini-cuvette. The reaction was tracked spectrophotometrically at 475 nm, reading at 0, 1, 2 and 3 minutes.
(f) The effect of test substances on reaction rate was expressed as inhibition (I) where I=100−[100 (trt absorbance change, 3 min)/100(control absorbance change, 3 min)].
Concentrations of substrate, enzyme or test substance can be varied as appropriate.
(§1) This assay duplicates rate-controlling steps in the human metabolic pathway to skin pigmentation. Pure hydroquinone in 1% solution was employed as a comparison standard.
as §1

SMILES | effect on tyrosinase in standard assays (in words) (constituents of TYROSTAT compositions) | Enzymes reaction rate reduction @ 5 μg enzyme (5 μg enzyme, test substance at 1% strength) | Enzymes reaction rate reduction @ 15 μg enzyme (15 μg enzyme, test substance at 1% strength) | INHIBITION OF ENZYME (Table 3) | Inhibition of tyrosinase enzyme step 2, 0.001% conc (Table 4) | Inhibition of tyrosinase enzyme step 2, 0.01% conc (Table 4) | Inhibition of tyrosinase enzyme step 2, 0.1% conc (Table 4) | Inhibition of tyrosinase enzyme step 2, 1% conc (Table 4) | INHIBITION OF ENZYME (Table 5) | Inhibition of tyrosinase enzyme step 2, 0.001% conc (Table 6) | Inhibition of tyrosinase enzyme step 2, 0.01% conc (Table 6) | Inhibition of tyrosinase enzyme step 2, 0.1% conc (Table 6) | Inhibition of tyrosinase enzyme step 2, 1% conc (Table 6)
CC(O)CCO (stereo not drawn) [butanediol, 1,3-butanediol] | slightly inhibitory |  |  |  |  |  |  |  |  |  |  |  | 
Oc1ccc(O)cc1 [Hydroquinone, 1,4-dihydroxybenzene] |  | 65% | 55% | 58-62% | <10% | <10% | 31% | 60% | 38-62% | <10% | <10% | 31% | 60%
O=C1O[C@H]([C@@H](O)CO)C(O)=C1O [Ascorbic acid, L-ascorbic acid] |  |  |  |  | 23% | 82% | 100% | 100% |  | 23% | 82% | 100% | 100%
